In publication PMC4483166, “Structural Basis of Specific Recognition of Non-Reducing Terminal N-Acetylglucosamine by an Agrocybe aegerita Lectin” (PLoS ONE, 2015) one finds Kd data, which are given here for two compounds.

Like-named read-outs stand apart in the source and are kept apart here.

As a reminder, the Kd is the free concentration of one partner at which half of the binding sites on the other are occupied at equilibrium, for simple one-to-one binding.

Assay [1] has as its target T1, Agrocybe aegerita lectin 2 (AAL2) (Cyclocybe aegerita, UniProt H6CS64).
T1 construct: gene aal-2; recombinant AAL2 without any tag, expressed in E. coli BL21 (DE3); 407 amino acid residues
T1 sequence (H6CS64 1-407): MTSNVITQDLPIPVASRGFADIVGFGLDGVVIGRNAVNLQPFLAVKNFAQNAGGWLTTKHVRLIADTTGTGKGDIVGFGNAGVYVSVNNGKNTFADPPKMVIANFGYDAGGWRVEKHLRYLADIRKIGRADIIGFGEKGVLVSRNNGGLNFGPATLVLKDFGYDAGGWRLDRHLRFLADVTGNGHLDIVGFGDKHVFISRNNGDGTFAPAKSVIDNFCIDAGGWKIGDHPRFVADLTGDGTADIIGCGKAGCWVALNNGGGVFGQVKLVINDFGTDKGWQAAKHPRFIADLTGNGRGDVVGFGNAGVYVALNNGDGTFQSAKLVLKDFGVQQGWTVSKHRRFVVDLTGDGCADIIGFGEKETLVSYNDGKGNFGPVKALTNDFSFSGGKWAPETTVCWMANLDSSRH
Kind of assay: crystal structure of the complex ([…] Å) and SPR steady-state affinity. The assay is classed as binding.

For assay [2], the target named is T1, Agrocybe aegerita lectin 2 (AAL2). Described as above. It is filed as binding. This is another data set of the same source.

For the compound `CC(=O)N[C@@H]1[C@@H](O)[C@H](O)[C@@H](CO)O[C@H]1O` [GlcNAc], the Kd in assay [1] was 28.3 µM.
For the compound `CC(=O)N[C@H]1[C@H](O[C@H]2[C@@H](O)[C@@H](CO)O[C@@H](O[C@H]3[C@H](O)[C@@H](NC(C)=O)C(O)O[C@@H]3CO)[C@@H]2O)O[C@H](CO)[C@@H](O)[C@@H]1O` (some centres unmarked) [GlcNAcβ1-3Galβ1-4GlcNAc], in assay [2], the affinity, expressed as Kd, was 41.7 µM.
